Experimental data taken from PubChem BioAssay (NCI).
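How tested: cells in 96-well plates exposed to compound for 48 hours at five concentrations. The concentration for 50% growth inhibition is given as GI50. TGI is the concentration that stops growth completely.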

Legend:
Test in all cases: NCI tumour cell line growth inhibition, 48 h
OVCAR-8 ovarian = tested on: OVCAR-8 ovarian
OVCAR-3 ovarian = tested on: OVCAR-3 ovarian
NCI-H226 lung = tested on: NCI-H226 lung
HCC-2998 colon = tested on: HCC-2998 colon
SW-620 colon = tested on: SW-620 colon
SK-MEL-2 melanoma = tested on: SK-MEL-2 melanoma
UACC-62 melanoma = tested on: UACC-62 melanoma
A549 NSCLC = tested on: A549 NSCLC
RXF 393 renal = tested on: RXF 393 renal
RPMI-8226 leukemia = tested on: RPMI-8226 leukemia

In the case of `COC12C=C/C(=C(/C(=O)OCCSc3ccnn3C)C(=O)CCCCCCCCC3(OC)C=C/C(=C(/C(=O)OCCSc4ccnn4C)C(=O)CCCCCCCC1)O3)O2`, the GI50 (OVCAR-8 ovarian) is reported as 1 µM, the TGI (OVCAR-8 ovarian) is reported as 6.79 µM and the GI50 (OVCAR-3 ovarian) is reported as 0.966 µM. The TGI (OVCAR-3 ovarian) was 2.77 µM, the GI50 (NCI-H226 lung) was 0.827 µM and the TGI (NCI-H226 lung) was 1.76 µM. It also gave a GI50 (HCC-2998 colon) of 0.584 µM, a TGI (HCC-2998 colon) of 1.11 µM and a GI50 (SW-620 colon) of 1.07 µM. It also gave a TGI (SW-620 colon) of 5.38 µM, a GI50 (SK-MEL-2 melanoma) of 0.928 µM and a TGI (SK-MEL-2 melanoma) of 2.8 µM. It also gave a GI50 (UACC-62 melanoma) of 0.716 µM, a TGI (UACC-62 melanoma) of 1.85 µM and a GI50 (A549 NSCLC) of 0.882 µM. It also gave a TGI (A549 NSCLC) of 2.66 µM, a GI50 (RXF 393 renal) of 0.665 µM and a TGI (RXF 393 renal) of 1.17 µM. For the same compound, the GI50 (RPMI-8226 leukemia) was 0.895 µM and the TGI (RPMI-8226 leukemia) was 2.65 µM.
`O=C(O)/C=C/c1ccc[c]([Sb](=[O])([OH])[OH])c1` was tested, and the GI50 (OVCAR-8 ovarian) was > 100 µM, the TGI (OVCAR-8 ovarian) was > 100 µM and the GI50 (OVCAR-3 ovarian) was > 100 µM. For the same compound, the TGI (OVCAR-3 ovarian) was > 100 µM, the GI50 (NCI-H226 lung) was > 100 µM and the TGI (NCI-H226 lung) was > 100 µM. The GI50 (HCC-2998 colon) was > 100 µM, the TGI (HCC-2998 colon) was > 100 µM and the GI50 (SW-620 colon) was > 100 µM. For the same compound, the TGI (SW-620 colon) was > 100 µM, the GI50 (SK-MEL-2 melanoma) was > 100 µM and the TGI (SK-MEL-2 melanoma) was > 100 µM. The GI50 (UACC-62 melanoma) was > 100 µM, the TGI (UACC-62 melanoma) was > 100 µM and the GI50 (A549 NSCLC) was > 100 µM. The TGI (A549 NSCLC) was > 100 µM, the GI50 (RXF 393 renal) was > 100 µM and the TGI (RXF 393 renal) was > 100 µM. The GI50 (RPMI-8226 leukemia) was > 100 µM and the TGI (RPMI-8226 leukemia) was > 100 µM.
Compound `COC1=CC(=O)C2C(C1=O)[C@@H]1c3ccccc3OC(C)(C)[C@H]21` (some centres not stated) has a TGI (OVCAR-8 ovarian) of 42.2 µM, a TGI (OVCAR-3 ovarian) of 28.3 µM and a TGI (NCI-H226 lung) of 54.7 µM. For the same compound, the TGI (HCC-2998 colon) was > 100 µM, the TGI (SW-620 colon) was 48 µM and the TGI (SK-MEL-2 melanoma) was 71.2 µM. The TGI (A549 NSCLC) was > 100 µM, the TGI (RXF 393 renal) was 27.1 µM and the TGI (RPMI-8226 leukemia) was 72.2 µM.
Work on `c1ccc2cc(Cn3cc[n+](Cc4ccc5ccccc5c4)c3)ccc2c1` yielded a GI50 (OVCAR-8 ovarian) of 1.64 µM, a TGI (OVCAR-8 ovarian) of 12.3 µM and a GI50 (OVCAR-3 ovarian) of 0.675 µM. For the same compound, the TGI (OVCAR-3 ovarian) was 2.18 µM, the GI50 (NCI-H226 lung) was 1.72 µM and the TGI (NCI-H226 lung) was 14.3 µM. The GI50 (HCC-2998 colon) was 1.05 µM, the TGI (HCC-2998 colon) was 4.38 µM and the GI50 (SW-620 colon) was 2.05 µM. It also gave a TGI (SW-620 colon) of 13.6 µM, a GI50 (SK-MEL-2 melanoma) of 1.37 µM and a TGI (SK-MEL-2 melanoma) of 4.35 µM. For the same compound, the GI50 (UACC-62 melanoma) was 0.478 µM, the TGI (UACC-62 melanoma) was 1.98 µM and the GI50 (A549 NSCLC) was 7.97 µM. The TGI (A549 NSCLC) was 22.9 µM, the GI50 (RXF 393 renal) was 1.25 µM and the TGI (RXF 393 renal) was 4.72 µM. It also gave a GI50 (RPMI-8226 leukemia) of 0.348 µM and a TGI (RPMI-8226 leukemia) of 1.97 µM.
`CC(=Nc1ccccc1)C1=C(O)C(Cc2cccc(F)c2)NC1=O` (configuration not stated) was tested, and the GI50 (OVCAR-8 ovarian) was 0.122 µM, the TGI (OVCAR-8 ovarian) was > 100 µM and the GI50 (NCI-H226 lung) was 5.25 µM. For the same compound, the TGI (NCI-H226 lung) was > 100 µM, the GI50 (HCC-2998 colon) was 0.144 µM and the TGI (HCC-2998 colon) was 3.1 µM. The GI50 (SW-620 colon) was 0.0419 µM, the TGI (SW-620 colon) was > 100 µM and the GI50 (SK-MEL-2 melanoma) was 0.0626 µM. The TGI (SK-MEL-2 melanoma) was > 100 µM, the GI50 (UACC-62 melanoma) was 0.0546 µM and the TGI (UACC-62 melanoma) was > 100 µM. For the same compound, the GI50 (A549 NSCLC) was 0.0511 µM, the TGI (A549 NSCLC) was > 100 µM and the GI50 (RXF 393 renal) was 0.0186 µM. For the same compound, the TGI (RXF 393 renal) was 0.0561 µM, the GI50 (RPMI-8226 leukemia) was 0.0525 µM and the TGI (RPMI-8226 leukemia) was > 100 µM.
`COc1cc(OC)cc(-c2nc3sccn3c2/C=N/N=C(N)N)c1` was tested, and the GI50 (OVCAR-8 ovarian) was 9.85 µM, the TGI (OVCAR-8 ovarian) was 20.8 µM and the GI50 (OVCAR-3 ovarian) was 5.52 µM. The TGI (OVCAR-3 ovarian) was 12.3 µM, the GI50 (NCI-H226 lung) was 6.96 µM and the TGI (NCI-H226 lung) was 14.8 µM. It also gave a GI50 (HCC-2998 colon) of 7.55 µM, a TGI (HCC-2998 colon) of 14.6 µM and a GI50 (SW-620 colon) of 10 µM. For the same compound, the TGI (SW-620 colon) was 19.1 µM, the GI50 (SK-MEL-2 melanoma) was 16.7 µM and the TGI (SK-MEL-2 melanoma) was > 50 µM. The GI50 (UACC-62 melanoma) was 8.03 µM, the TGI (UACC-62 melanoma) was 14.8 µM and the GI50 (A549 NSCLC) was 10 µM. For the same compound, the TGI (A549 NSCLC) was 19.8 µM, the GI50 (RXF 393 renal) was 7.96 µM and the TGI (RXF 393 renal) was 16.7 µM. The GI50 (RPMI-8226 leukemia) was 10.7 µM and the TGI (RPMI-8226 leukemia) was 21.6 µM.
